Consider 25 compounds from US10689394B2, “Thieno[2,3-b]pyridine derivative, quinoline derivative, and use thereof” (The University of Tokyo, priority 2016, dated 2020).

Molecules are shown by their SMILES.

This experiment deals with T1, binding between ALS-related mutant SOD1 (Flag-SOD1 G93A) and Derlin-1 (Derlin-1-HA) (Homo sapiens, UniProt P00441+Q9BUN8, G94A).
T1 construct: expressed in transfected cells; host or cells: HEK293A
The experiment in a line: Cell-based co-immunoprecipitation assay of mutant SOD1 (G93A)-Derlin-1 binding. Also noted: key to Activity value (score): a compound exhibiting no inhibitory activity is set at 0; a compound exhibiting inhibitory activity is set at 1; a compound exhibiting significant inhibitory activity is set at 2; a compound having higher inhibitory activity than the compound of Example 1 is set at 3. The following applies: for Activity value (score): HEK293A cells overexpressing Flag-SOD1 G93A and Derlin-1-HA. On the procedure:
As cells, human embryonic kidney-derived, Human Embryonic Kidney 293A (HEK293A) cells were used. The cells were cultured in High Glucose Dulbecco's modified Eagle's medium (DMEM: 4.5 mg/ml glucose, Sigma) supplemented with complement-inactivated 10% fetal bovine serum (FBS, Vitromex) and 100 units/mL Penicillin G (Meiji), which was placed in an incubator set at conditions of 37° C. and 5% CO2.
Transfection into the HEK293A cells was carried out using PEI-Max (Polyscience) at a ratio of 3 μL of PEI-Max to 1 μg of plasmid. DMEM was mixed with PEI-Max, and the mixture was then left at rest for 5 minutes. Thereafter, the reaction mixture was added to the plasmid DNA dissolved in DMEM, and the thus obtained mixture was further left at rest for 15 minutes. After seeding, the culture was carried out for 12 to 24 hours, and the resultant was then added to a culture medium of cells, in which the medium had been exchanged with DMEM supplemented only with 10% FBS.
pcDNA3.0-Derlin-1-HA, pcDNA3.0-Flag-SOD1 G93A, and 123 types of other mutants.
In the lysis of HEK293A cells for use in a co-immunoprecipitation experiment, an IP lysis buffer (20 mM Tris-HCl (pH 7.5), 150 mM NaCl, 10 mM EDTA (pH 8.0), 1% Triton-X 100, 5 μg/mL leupeptin, and 1 mM phenylmethylsulfonyl fluoride) was used.
After the transfection on a 24-well plate, the cells were cultured for 12 hours or 24 hours, and the obtained cell culture was exchanged with 200 μL of medium. Thereafter, 1% DMSO or various types of compounds having each different concentration were added into the culture. Thirty-six hours or twenty-four hours later, the cells were incubated in the IP lysis buffer (300 μL/well) at 4° C. for 25 minutes, so that the cells were lysed. The cell lysate was centrifuged at 4° C. at 15000 rpm for 10 minutes, and a supernatant was then recovered. To this supernatant, Anti-Flag M2 affinity gel was added in a liquid amount of 20 μL, and they were allowed to react with each other by subjecting the obtained mixture to inversion mixing at 4° C. for 25 minutes. After completion of the reaction, a supernatant was removed, and the residue was washed twice with High salt wash buffer (1% Triton X 100, 500 mM NaCl, 20 mM Tris-HCl (pH 7.5), and 5 mM EGTA), and was then washed once with Low salt wash buffer (150 mM NaCl, 20 mM Tris-HCl (pH 7.5), and 5 mM EGTA). Finally, 50 μL of a 2×SDS sample buffer was added to the resultant, and the obtained mixture was then boiled at 98° C. for 3 minutes to obtain an SDS-PAGE sample. Regarding the lysate, a 2×SDS sample buffer was added in an amount equal to the supernatant, and the obtained mixture was then boiled at 98° C. for 3 minutes to obtain an SDS-PAGE sample.
After completion of SDS-PAGE, a protein was transferred from the gel into a polyvinylidene difluoride membrane (PVDF) ([…], Pall), and was then blocked with TBS-T (150 mM NaCl, 50 mM Tris-HCl (pH 8.0), and 0.05% Tween 20) supplemented with 5% skimmed milk at room temperature for 2 hours or more. Thereafter, a primary antibody diluted with TBS-T supplemented with 5% bovine serum albumin and 0.1% NaN3 was allowed to bind to each molecule on the PVDF membrane at 4° C. for 12 hours or more. After completion of the reaction, a secondary antibody (HRP-linked 2nd antibody) diluted with TBS-T supplemented with 5% skimmed milk was allowed to bind to the primary antibody at room temperature for 1 hour. Thereafter, the resultant was washed with TBS-T for 15 minutes, 3 or more times, and detection was then carried out using an enhanced chemiluminescence (ECL) system.
With regard to the compounds of the present invention (Example Compound 1 to Example Compound 47), whether or not the present compound can inhibit the binding between ALS-related mutant SOD1 and Derlin-1 in a cell by being added into a cell culture solution was examined according to a co-immunoprecipitation experiment. […]

T1 sequence (P00441 whole entry G94A, species assumed): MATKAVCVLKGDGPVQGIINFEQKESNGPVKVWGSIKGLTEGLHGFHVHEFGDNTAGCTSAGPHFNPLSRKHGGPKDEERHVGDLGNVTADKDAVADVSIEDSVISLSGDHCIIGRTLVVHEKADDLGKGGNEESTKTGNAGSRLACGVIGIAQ
T1 sequence (Q9BUN8 whole entry, species assumed, stated change not applied): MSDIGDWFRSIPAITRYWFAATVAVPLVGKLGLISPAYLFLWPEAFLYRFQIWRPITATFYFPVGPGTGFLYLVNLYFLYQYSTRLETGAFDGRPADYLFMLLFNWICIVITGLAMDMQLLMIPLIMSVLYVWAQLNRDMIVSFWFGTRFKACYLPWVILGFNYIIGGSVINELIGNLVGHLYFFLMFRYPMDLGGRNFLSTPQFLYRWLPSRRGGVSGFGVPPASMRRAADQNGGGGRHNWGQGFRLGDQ

With `C#CCCCOCC=CCN(C(=O)c1sc2nc(-c3cccnc3)ccc2c1N)c1ccccc1` (stereo in doubt) [Example 38, 3-amino-N-((E)-4-(pent-4-ynyloxy)but-2-enyl)-N-phenyl-6-(3-pyridinyl)thieno[2,3-b]pyridine-2-carboxamide], where the note is “assay concentration 20 μM”, the “Activity value (score)” value is listed as 2. `C#CCN(C(=O)c1sc2nc(-c3cccnc3)ccc2c1N)c1ccccc1` [Example 2, N-propargyl-3-amino-N-phenyl-6-(3-pyridinyl)thieno[2,3-b]pyridine-2-carboxamide]: the “Activity value (score)” value (assay concentration 20 μM) came out at 2. On the same count and under the same terms, then `Nc1c(C(=O)N2CCCc3ccccc32)sc2nc(-c3cccnc3)ccc12` [Example 3, (3-Amino-6-(3-pyridinyl)thieno[2,3-b]2-pyridinyl)(3,4-dihydro-1(2H)-quinolyl)methanone], with 2. Consider `Nc1c(C(=O)Nc2ccncc2)sc2nc(-c3cccnc3)ccc12` [Example 4, 3-amino-N-(4-pyridinyl)-6-(3-pyridinyl)thieno[2,3-b]pyridine-2-carboxamide], for which, under “0.625 μM, 1.25 μM, 2.5 μM and 5 μM added to HEK293A cell culture, FIG. 1”, the “binding between mutant SOD1 and Derlin-1 (co-precipitated Derlin-1, IB:HA band)” value was “the binding between mutant SOD1 and Derlin-1 was inhibited”. Besides, where the note is “assay concentration 5 μM”, the “Activity value (score)” value is recorded as 2. In the case of `C/C=C/CN(C(=O)c1sc2nc(-c3cccnc3)ccc2c1N)c1ccccc1` [Example 5, 3-amino-N-(trans-2-butenyl)-N-phenyl-6-(3-pyridinyl)thieno[2,3-b]pyridine-2-carboxamide], the “Activity value (score)” value (assay concentration 10 μM) is reported as 2. As to `Nc1c(C(=O)Nc2ccncc2)sc2nc(-c3ccccn3)ccc12` [Example 6, 3-amino-N-(4-pyridinyl)-6-(2-pyridinyl)thieno[2,3-b]pyridine-2-carboxamide], the “Activity value (score)” value (assay concentration 2.6 μM) was 1.

As to `Nc1c(C(=O)Nc2ccc(-c3cc(C(F)(F)F)cc(C(F)(F)F)c3)cc2)sc2nc(-c3ccncc3)ccc12` [Example 7], the “Activity value (score)” value (assay concentration 2.6 μM) came out at 1. For `C=CCN(C(=O)c1sc2nc(-c3ccncc3)ccc2c1N)c1cc(F)ccc1F` [Example 8, N-allyl-3-amino-N-(2,5-difluorophenyl)-6-(4-pyridinyl)thieno[2,3-b]pyridine-2-carboxamide], the “Activity value (score)” value (assay concentration 5 μM) turned out to be 1.

Regarding `CC#CCN(C(=O)c1sc2nc(-c3cccnc3)ccc2c1N)c1ccccc1` [Example 9, 3-amino-N-(2-butynyl)-N-phenyl-6-(3-pyridinyl)thieno[2,3-b]pyridine-2-carboxamide], the “Activity value (score)” value (assay concentration 5 μM) came out at 1. For `CCCN(C(=O)c1sc2nc(-c3cccnc3)ccc2c1N)c1ccccc1` [Example 10, N-n-propyl-3-amino-N-phenyl-6-(3-pyridinyl)thieno[2,3-b]pyridine-2-carboxamide], the “Activity value (score)” value (assay concentration 20 μM) was 2. Still for that read-out and setting: then `CCCN(C(=O)c1sc2nc(-c3cccnc3)ccc2c1N)c1ccc(F)c(F)c1F` [Example 11, N-n-propyl-3-amino-N-(2,3,4-trifluorophenyl)-6-(3-pyridinyl)thieno[2,3-b]pyridine-2-carboxamide], with 2. Still for that read-out and setting: then `C=CCN(C(=O)c1sc2nc(-c3cccnc3)ccc2c1N)c1ccc(I)cc1` [Example 12, N-allyl-3-amino-N-(4-iodophenyl)-6-(3-pyridinyl)thieno[2,3-b]pyridine-2-carboxamide], with 2; and `CC(C)=CCN(C(=O)c1sc2nc(-c3cccnc3)ccc2c1N)c1ccccc1` [Example 13, N-(3-methyl-2-butenyl)-3-amino-N-phenyl-6-(3-pyridinyl)thieno[2,3-b]pyridine-2-carboxamide], with 2. With `Nc1c(C(=O)N2CCCCc3ccccc32)sc2nc(-c3cccnc3)ccc12` [Example 14, [3-amino-6-(3-pyridinyl)thieno[2,3-b]2-pyridinyl](2,3,4,5-tetrahydro-1H-benzo[b]azepin-1-yl)methanone], for the setting “assay concentration 20 μM”, the “Activity value (score)” value is recorded as 2. The same measure, in the same setting: then `C=CCN(C(=O)c1sc2nc(-c3cccnc3)ccc2c1N)c1ccc(F)cc1F` [Example 15, N-allyl-3-amino-N-(2,4-difluorophenyl)-6-(3-pyridinyl)thieno[2,3-b]pyridine-2-carboxamide], with 2. Same read-out and setting: then `C=CCN(C(=O)c1sc2nc(-c3cccnc3)ccc2c1N)c1cccc(F)c1F` [Example 16, N-allyl-3-amino-N-(2,3-difluorophenyl)-6-(3-pyridinyl)thieno[2,3-b]pyridine-2-carboxamide], with 2; and `C=CCN(C(=O)c1sc2nc(-c3cccnc3)ccc2c1N)c1cc(F)ccc1F` [Example 17, N-allyl-3-amino-N-(2,5-difluorophenyl)-6-(3-pyridinyl)thieno[2,3-b]pyridine-2-carboxamide], with 2. The same measure, in the same setting: then `C=CCN(C(=O)c1sc2nc(-c3cccnc3)ccc2c1N)c1cc(F)ccc1C` [Example 18, N-allyl-3-amino-N-(5-fluoro-2-methylphenyl)-6-(3-pyridinyl)thieno[2,3-b]pyridine-2-carboxamide], with 2; and `C=CCN(C(=O)c1sc2nc(-c3ccncc3)ccc2c1N)c1ccc(F)c(F)c1` [Example 19, N-allyl-3-amino-N-(3,4-difluorophenyl)-6-(4-pyridinyl)thieno[2,3-b]pyridine-2-carboxamide], with 2; and `C=CCN(C(=O)c1sc2nc(-c3cccnc3)ccc2c1N)c1cc(F)cc(F)c1` [Example 20, N-allyl-3-amino-N-(3,5-difluorophenyl)-6-(3-pyridinyl)thieno[2,3-b]pyridine-2-carboxamide], with 2.

For the compound `C=CCN(C(=O)c1sc2nc(-c3cccnc3)ccc2c1N)c1cccc(S(F)(F)(F)(F)F)c1` [Example 21, N-allyl-3-amino-N-(3-(pentafluoro-λ^6-sulfanyl)phenyl)-6-(3-pyridinyl)thieno[2,3-b]pyridine-2-carboxamide], under “assay concentration 20 μM”, the “Activity value (score)” value is 2. Regarding `C=CCN(C(=O)c1sc2nc(-c3ccncc3)ccc2c1N)c1cc(F)cc(F)c1` [Example 22, N-allyl-3-amino-N-(3,5-difluorophenyl)-6-(4-pyridinyl)thieno[2,3-b]pyridine-2-carboxamide], where the note is “assay concentration 20 μM”, the “Activity value (score)” value stood at 2. For the compound `C=CCN(C(=O)c1sc2nc(-c3ccncc3)ccc2c1N)c1cccc(S(F)(F)(F)(F)F)c1` [Example 23, N-allyl-3-amino-N-(3-(pentafluoro-λ^6-sulfanyl)phenyl)-6-(4-pyridinyl)thieno[2,3-b]pyridine-2-carboxamide], the “Activity value (score)” value (assay concentration 20 μM) is on record as 2. For `Nc1c(C(=O)Nc2cccc3ccccc23)sc2nc(-c3cccnc3)ccc12` [Example 24], the “Activity value (score)” value (assay concentration 20 μM) stood at 1.

In the case of `Cc1cccc(C)c1NC(=O)c1sc2nc(-c3cccnc3)ccc2c1N` [Example 25, 3-amino-N-(2,6-dimethylphenyl)-6-(3-pyridinyl)thieno[2,3-b]pyridine-2-carboxamide], the “Activity value (score)” value (assay concentration 20 μM) is on record as 1.
